Test results taken from patent US20160361311A1, “LIGANDS THAT TARGET HEPATITIS C VIRUS E2 PROTEIN” (AMERICAN UNIVERSITY OF CAIRO, priority 2014, published 2016).
pIC50: −log10 of the molar value.

Key:
E2 = E2 (Hepatitis C virus genotype 1a, UniProt P27958); experiment: Binding of CD81 ligand 73735 to E2 (method not given); parameters: species or system HCV
recombinant E2 protein = target: T1, recombinant E2 protein (Hepatitis C virus genotype 1b, UniProt Q9WMX2); experiment: Surface plasmon resonance (Biacore T100) binding to recombinant E2 immobilized on CM5 chip; settings: for Binding (RU): 200 μM ligand in PBS, 3 min association; for Dissociation 1 (RU): response remaining 10 sec after rinsing with buffer; for Dissociation 2 (RU): response remaining 50 sec after rinsing with buffer
T1 construct: encoding amino acids 384-656 of the Con1 envelope protein 2 ectodomain (eE2); made in house; host or cells: HEK293T cells (lentiviral, secreted)
Source text: A construct containing the sequence encoding amino acids 384-656 of the Con1 envelope protein 2 ectodomain (eE2), a genoptype 1 E2 sequence, was cloned into a lentiviral expression vector with a carboxy-terminal Protein A tag separated by a PreScission Protease cleavage consensus sequence. eE2-ProtA was stably expressed in HEK293T cells using lentiviral infection. The protein was secreted into the media and supernatants were purified using IgG Sepharose (GE Healthcare, Piscataway, N.J.). eE2-ProtA was eluted with 100 mM sodium citrate and 20 mM KCl at pH 3 directly into tubes containing 1M Tris pH 9 for immediate neutralization. PreScission Protease was added to the eluted sample at a ratio of 1:50 (enzyme:eE2), and the digest was then dialyzed into 20 mM HEPES pH 7.5, 250 mM NaCl, 5% glycerol. eE2 was separated from the cleaved tag and the PreScission Protease by ion exchange chromatography.
The set of 34 of the ligands predicted by AutoDock to bind to E2 were tested experimentally to determine if they bind to recombinant E2 protein immobilized on a chip using surface Plasmon resonance. The SPR analyses were performed using a Biacore T100 workstation (GE Healthcare, NJ, USA) and Prot-A-tagged HCV E2 protein. 1 μM ProtA-HCV E2 was diluted into 10 mM sodium acetate buffer pH 5 and immobilized for 15 min at a flow speed of 5 μl/min onto a CM5 sensor chip using amine coupling (EDC-NHS). Approximately 10,000 response units (RU) of protein were immobilized on the chip. His-CD81-LEL (Bioclone-CA/USA) binding to HCV E2 was tested prior to injecting the ligands to confirm the E2 protein was functional and would bind CD81-LEL. In a typical experiment with CD81, […] of his-CD81 in 114 μl PBS was injected into channel 2 and 106.4 RUs of CD81 bound to the E2 on the chip. This was followed by testing the binding of the 34 virtual screening hits where the ligands were prepared as 200 μM solutions in PBS and they were introduced to the protein using a pre-programmed 3 min association and 1 min dissociation interval. The response was measured at two time points during dissociation, 10 and 50 seconds, to obtain information on the rate of ligand dissociation from E2. Twenty-three of the ligands predicted by AutoDock to bind to E2 were observed by SPR to bind to the recombinant protein (Table 2). The measured responses for the ligands that bound varied from 54 to 276 RUs. Data was also obtained on the rate of ligand dissociation by measuring the amount of ligand remaining bound at two time points, dissociation 1 (10 seconds) and dissociation 2 (50 seconds), during the rinsing of the chip with buffer (FIG. 8). The majority of the ligands dissociated quickly, as one might expect for small molecules that bind to the surface of a protein.

RD114pp = RD114pp infection of Huh-7 cells (luciferase); type: cell-based, feline endogenous virus RD114; settings: Feline endogenous virus RD114, Huh-7, 30 h, read-out: IC50 RD114pp
Protocol: (§1) Pseudotyped retroviral particles harboring HCV envelope proteins (HCVpp) from different genotypes were produced as described previously. A plasmid encoding the feline endogenous virus RD114 glycoprotein [35] was used for the production of RD114pp. Both HCVpp and RD114pp expressed Firefly luciferase.
(§2) To identify ligands that inhibit HCV infection, Huh-7 cells were seeded in 96-well plates and treated the day after with six different concentrations of each ligand diluted in DMSO in duplicate using a Zephyr automated liquid handling workstation (Caliper BioSciences, Hopkinton, Mass.). The final concentration of DMSO (1%) was adjusted to be the same for all ligand concentrations. Cells treated with DMSO were used as negative controls. Cells treated with different concentrations of anti-CD81 (JS-81 from BD Pharmingen, San Jose, Calif.) 1 hour before infection, were also used as positive controls. The third day, RD114pp, HCVpp or HCVcc were inoculated and incubated for 30 hours at 37° C. Firefly and Gaussia luciferase assays were performed as indicated by the manufacturer (Promega, San Luis Obispo, Calif.).
Pseudotyped retroviral particles harboring the envelope protein of an endogenous feline retrovirus (RD114pp) were first used to determine the specificity and the safety of molecules.

HCVpp 2a = HCVpp 2a infection of Huh-7 cells, 96-well (luciferase); type: cell-based, HCV; settings: Hepatitis C virus, Huh-7, 30 h, read-out: IC50 HCVpp
Protocol: as §1, §2
(§3) The remaining ligands were next tested against pseudotyped retroviral particles harboring genotype-2a HCV envelope proteins (HCVpp 2a), cell culture produced HCV particles (HCVcc) or RD114pp. As a positive control, an anti-CD81 antibody was used in parallel.

HCVcc = HCVcc infection of Huh-7 cells (Gaussia luciferase); type: cell-based, HCV; settings: Hepatitis C virus, Huh-7, 30 h, read-out: IC50 HCVcc
Protocol: The cell culture-produced HCV particles (HCVcc) used in this study were based on the JFH1 strain [36] and were prepared as described previously. They were engineered to express the A4 epitope, titer-enhancing mutations and Gaussia luciferase.
as §2, §3

T1 sequence (Q9WMX2 384-656): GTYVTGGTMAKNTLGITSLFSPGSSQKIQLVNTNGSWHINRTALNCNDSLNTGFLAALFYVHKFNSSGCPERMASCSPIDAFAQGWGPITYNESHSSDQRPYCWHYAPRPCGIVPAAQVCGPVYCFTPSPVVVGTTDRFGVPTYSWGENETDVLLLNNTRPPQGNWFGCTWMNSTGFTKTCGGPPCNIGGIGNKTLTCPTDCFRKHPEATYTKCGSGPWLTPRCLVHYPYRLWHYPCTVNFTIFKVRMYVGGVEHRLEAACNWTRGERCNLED
Chain of E2 (P27958 384-746): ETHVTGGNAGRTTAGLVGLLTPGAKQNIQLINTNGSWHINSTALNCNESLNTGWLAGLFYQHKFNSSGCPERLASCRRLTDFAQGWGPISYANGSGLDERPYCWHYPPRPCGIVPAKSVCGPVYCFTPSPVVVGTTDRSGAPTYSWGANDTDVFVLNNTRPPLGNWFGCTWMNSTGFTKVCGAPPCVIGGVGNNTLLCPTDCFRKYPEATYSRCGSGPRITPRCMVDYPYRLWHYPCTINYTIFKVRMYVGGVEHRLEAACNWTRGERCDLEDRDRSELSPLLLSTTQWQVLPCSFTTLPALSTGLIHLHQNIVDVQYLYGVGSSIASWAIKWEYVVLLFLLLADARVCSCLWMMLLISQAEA

Structure (SMILES) | binding to E2 (in words) (E2) | Binding (RU) (recombinant E2 protein) | Dissociation 1 (RU) (recombinant E2 protein) | Dissociation 2 (RU) (recombinant E2 protein) | pIC50 (RD114pp) | pIC50 (HCVpp 2a) | pIC50 (HCVcc) | binding to recombinant E2 protein by SPR (in words) (recombinant E2 protein)
COc1cc(-c2ccc(Nc3ccccc3C(=O)O)c(OC)c2)ccc1Nc1ccccc1C(=O)O [Ligand 73735] | determined to bind to E2 |  |  |  |  |  |  | 
NC1=N[C@@H](c2ccc(Cl)cc2)N(c2ccc(S(N)(=O)=O)cc2)C(N)=N1 [Ligand 117268] |  | 88.5 | 4.1 | 1.2 | 7.00 | < 5.00 | < 5.00 | 
C[C@]12CC[C@@H]3c4ccc(OCC(=O)O)cc4CC[C@H]3[C@@H]1CCC2=O [Ligand 86467, 2-[[(8R,9S,13S,14S)-13-methyl-17-oxo-7,8,9,11,12,14,15,16-octahydro-6H-cyclopenta[a]phenanthren-3-yl]oxy]acetate] |  | 54.9 | 1.9 | 0.8 | < 5.00 | < 5.00 | < 5.00 | bound
Cc1ccc([N+](=O)[O-])cc1NC(=O)Nc1onc(C)c1C [Ligand 213700, 1-(3,4-dimethyl-1,2-oxazol-5-yl)-3-(2-methyl-5-nitrophenyl)urea] |  | 62 | 3.1 | 0.8 | < 5.00 | < 5.00 | < 5.00 | 
